The values below come from patent US8236985B2, “Compounds and uses thereof” (Imperial Innovations Ltd., priority 2006, dated 2012).

Like-named read-outs stand apart in the source and are kept apart here.

Data set [1] deals with MCF-7 cells. Nature of the data set: Sulforhodamine B (SRB) cell growth inhibition assay. The class given is cell-based, human. Conditions: N=5-6. The protocol:
Stock cultures of MCF-7 and MDA-MB-231 human breast cancer cell lines (American Type Culture Collection, Rockville, Md.) are grown in Dulbecco's Modified Eagle's Medium (DMEM) containing 10% (v/v) foetal calf serum, 2 mM L-glutamine, 100 units/ml penicillin and 100 μg/ml streptomycin at 37° C. in 5% CO2 humidified atmosphere. Cells are counted in a haemocytometer after detachment using 0.25% (w/v) trypsin in Dulbecco's Phosphate Buffered Saline without Ca^2+ or Mg^2+ (DPBS) (Sigma-Aldrich, Gillingham, UK) containing 0.02% (w/v) EDTA. Viability is determined by Trypan blue exclusion. For each cell line, cells are seeded in 96-well microtitre plates at optimal densities determined in prior experiments to ensure exponential growth for the duration of the assay. […] After 48 hour incubation, cell proliferation is determined using the sulforhodamine B colorimetric assay described by Skehan et al. (1990) J. Natl. Cancer Inst. 82, 1107-1112. Briefly, 100 μl of ice cold 40% (w/v) trichloroacetic acid is added to each well and incubated for 1 hour at 4° C. The plate is then rinsed gently with five changes of tap water. To each well is then added 100 μl of 0.4% (w/v) sulforhodamine B in 1% (v/v) acetic acid and incubated for 1 hour at room temperature. The plate is then washed five times with 1% (v/v) acetic acid and allowed to air dry overnight. Bound dye is then solubilised by addition of 100 μl of 10 mM Tris base to each well followed by incubation on a vibrating plate shaker for 30 minutes. Absorbance at 492 nm is then measured on a microtitre plate reader and the results expressed as the mean ±SE for 6 replicates as a % of vehicle control (taken as 100%). The concentration of each compound of the invention that inhibits cell proliferation by 50% (IC50) is determined graphically in each case using non-linear regression analysis to fit inhibition data to the appropriate dose-response curve (GraphPad Prism Version 4.0; GraphPad Software Inc., San Diego, Calif.).
Trichostatin A (TSA) was used as control.

The test system of data set [2] is HDAC (HeLa nuclear extract). Nature of the data set: Fluorometric HDAC inhibition assay using the Fluor de Lys assay kit. It is filed as biochemical, human. How it is done: Histone deacetylase inhibition by compounds of the invention is assayed by a commercial fluorescent assay kit (BIOMOL—AK-500). 10 mM stock solutions of compounds of the invention prepared in DMSO are aliquoted and frozen at −20° C. For each assay, a vial of the drug solution is thawed to prepare dilutions of drug in DMSO; the remaining drug is discarded. Working solutions of the assay reagents are prepared according to the manufacturers instructions. For the assay, 10 μl of ×5 concentrations of drug (in triplicate) or HDAC assay buffer is added to 15 μl of dilute HeLa nuclear extract (BIOMOL; D1409) and 25 μl of (2×) Fluor-de-Lys substrate in a micro titre plate (Perkin Elmer # 6005270, Optiplate-96 Black microplate) and thoroughly mixed. […] The reactions are allowed to proceed for 10 min and then stopped by addition of 50 μl of dilute Fluor-de-Lys developer solution. The reaction mixtures are then incubated at room temperature for 15 min and fluorescence is read on a Victor multi-well Fluorescence plate reader at an excitation wavelength of 355 nm and emission wavelength of 460 nm.
To obtain a calibration curve, 50 μl aliquots of deacetylated standards prepared in HDAC assay buffer according to the manufacturer's instructions are mixed with 50 μl of diluted Fluor-de-Lys developer solution and incubated for 10 min at room temperature. The fluorescence is measured as above. A plot of arbitrary fluorescence units (AFU) against deacetylated standard concentration in μM is made. The slope and intercept are determined and used for conversion of inhibitor data AFU into velocity of reaction (V, μM/min). To obtain half-maximal inhibition (EC50), molar concentrations of drug are plotted against V and the EC50 is determined from the sigmoid dose response using the GraphPad Prism software.

The subject of data set [3] is HDAC. The following applies: HPLC fractions tested in vitro; cited from earlier work.
In data set [4] the test system is HDAC. Conditions: background statement; cited from earlier work.
The test system of data set [5] is N-methyl-N-nitrosourea carcinogen-induced rat mammary cancer. Conditions: 500 μg/kg/day s.c. for 4 weeks; cited from earlier work.
Data set [6] in a line: Intraperitoneal pharmacokinetic studies in vivo. Also on record: species or system mouse. Conditions: for Number of UV metabolites: 80 mg/kg i.p. How it is done: Parent compound and phase I metabolites were separated by HPLC and detected with simultaneous UV and positive ion electrospray mass spectrometry. Metabolites were identified by positive ion electrospray tandem mass spectrometry.
C1-A was introduced at 80 mg/kg in DMSO (0.0015 ml/g; 30 μl) intraperitoneally into the mouse.

The conditions of data set [7]: cited from earlier work.
The subject of data set [8] is MCF7 and MDA-MB-435 human mammary tumour xenografts. Nature of the data set: Human mammary tumour xenografts in immunodeficient mice. It is filed as in vivo, mouse. The following applies: 20-40 mg/kg/day i.p. for 2 weeks.
Data set [9] relates to HCT116 human colon cancer cells. Nature of the data set: Efficacy in vivo, HCT116 tumour-bearing mice. Also on record: species or system mouse. The following applies: 80 mg/ml i.p. daily for 7 days, n=1; for Efficacy in vivo (tumour volume vs vehicle control): HCT116 s.c. tumours. How it is done: The study was carried out at n=1 each for drug- or vehicle-treated mice. HCT116 human colon cancer cells were injected subcutaneously into the back of mice to form tumours.
When the tumours were about ˜125 mm^3, the mice were injected with C1-A at 80 mg/ml or vehicle (10% DMSO, 5% Tween 20 and 85% saline) intraperitoneally daily for 7 days. Tumour sizes were measured every 1-2 days in 3 orthogonal axes by callipers to determine tumour volume.

Data set [10] in a line: Pharmacokinetic studies in vivo after intravenous injection. Also on record: species or system mouse. The following applies: 80 mg/kg i.v. How it is done: C1-A at 80 mg/kg in 10% DMSO, 5% Tween 20 and 85% saline was injected i.v. into the mouse. Plasma samples were deproteinated with two volume equivalents of methanol, then 200 μl was analysed by reversed-phase high pressure liquid chromatography (5 μm C18 column and 10 mM ammonium acetate/acetonitrile gradient) with ultraviolet detection at a wavelength of 351 nm. C1-A was detectable in plasma up to 60 min after i.v. injection.

Data set [11] has as its system Histone H4 acetylation, pRb and Cyclin D1 in MCF-7 cells. Nature of the data set: Western blots of acetyl-H4, pRb and cyclin D1. It is filed as cell-based, human. The following applies: MCF-7 cells treated 24 h; western blot (FIG. 13). The protocol: MCF-7 cells were treated with drug or vehicle (equivalent concentration of DMSO in growth media) for 24 h. Cells were harvested and homogenised. The respective proteins (acetyl-H4, pRb and cyclin D1) in supernatants of these homogenates were visualised by western blot analysis as previously described (Leyton J. et al., Cancer Res. (2006) 66(15): 7621-9).
(In general: A western blot detects proteins with antibodies after separation by electrophoresis.)

Where [12] appears, read: first of two independent assay sets, N=3, read-out: Average EC50.
Where [13] appears, read: second of two independent assay sets, N=3, read-out: Average EC50.
The mark [14] stands for this setting: MCF-7 cells, first of two independent assays.
The mark [15] stands for this setting: MCF-7 cells, second of two independent assays.

As to `CCN(CC)c1ccc(S(=O)(=O)Nc2ccc(/C=C(C)/C=C/C(=O)NO)cc2)cc1` [Example C1-B, (E,E)-4-methyl-5-{4-[4-(diethylamino)phenyl]sulfonamido}penta-2,4-dienoic acid N-hydroxyamide], the concentration giving a half-maximal response (EC50) in data set [1] (Homo sapiens, MCF7, MCF-7 cells, first of two independent assays) was determined as 6000 nM; in data set [1] (Homo sapiens, MCF7, MCF-7 cells, second of two independent assays), 14000 nM; in data set [2] (setting [12]), 320 nM; in data set [2] (setting [13]), 450 nM.
As for `CNc1ccc(C(=O)C(C)C=C(C)C=CC(=O)NO)cc1` (centres unmarked) [N-demethylated TSA metabolite, N-demethylated TSA], the “HDAC inhibitory potency relative to TSA” value in data set [3] is “equipotent”.
Consider `CC(/C=C/C(=O)NO)=C\[C@@H](C)C(=O)c1ccc(N(C)C)cc1` [TSA, Trichostatin A], for which the figures for the EC50 in data set [1] (setting [14]) and in data set [1] (setting [15]) were 75 nM and 110 nM, respectively. In addition, in [4], the “Concentrations at which HDAC is inhibited” value was “low nanomolar”. Further, the figures for the Anti-tumour activity entry in data set [5] and in [8] were “potent anti-tumour activity” and “anti-tumour activity”, respectively. Besides, the Toxicity in vivo entry in data set [5] was “without significant toxicity”. Further, the “Number of UV metabolites” value is reported as 17 in data set [6] (mice, at 20 minutes (FIG. 17 and Sanderson et al, 2004)); 17 in [7] (TSA, at 20 minutes (Sanderson et al, 2004), quoted in Example 10). Besides, the Metabolism in vivo result in data set [6] (FIG. 17) is given as “rapidly metabolised in vivo”. Also, in data set [7] (TSA, at 20 minutes (Sanderson et al, 2004)), the Parent drug remaining entry is on record as “almost no parent drug”. Moreover, in data set [7] (plasma, 80 mg/kg i.p., mice), the Cmax is 40000 ng/mL. Also, the Half-life in [7] (plasma, 80 mg/kg i.p., mice) is recorded as 6.3 min.
“(E,E)-4-methyl-5-{4-[4-bis-(2-chloroethylamino)phenyl]-sulfonamido}penta-2,4-dienoic acid N-hydroxyamide [Example C1-A]”: the EC50 in data set [1] (setting [14]) came out at 3900 nM; in data set [1] (setting [15]) it was 6800 nM; in [2] (setting [12]) it was 590 nM; in data set [2] (setting [13]) it was 310 nM. The Stability in vivo entry in [6] (80 mg/kg i.p. in DMSO, mouse, HPLC-UV (FIG. 16)) is recorded as “stable in vivo”; in data set [10] (Balb/c mice (FIG. 14)) it was “stable in vivo”. Moreover, the “Number of UV metabolites” value in [6] (mouse, at 60 minutes) is recorded as 5. In addition, the “Toxicity based on measurement of body weight” value in data set [9] is listed as “no toxicity was detectable”. The “Efficacy in vivo (tumour volume vs vehicle control)” value in data set [9] is reported as “Tumour volume was greater in the control than in the C1-A-treated mouse”; in data set [9] (listed as C1A), “efficacious in vivo”. In [10] (mouse), the Detection in liver entry was “detectable in the liver at all time points”. In addition, in data set [10] (mouse, HPLC-UV), the “Time up to which compound was detectable in plasma” value is reported as “up to 60 min”. In data set [11], the “Concentration at which pRb & cyclin D are inhibited and H4 hyperacetylation is induced, relative to TSA” value is not below 10 × [TSA].
Consider Depudecin [reference compound], for which the “Concentrations at which HDAC is inhibited” value in data set [4] was “micromolar”. Moreover, in data set [2] (control, read-out: EC50), the EC50 was more than 10000 nM.

For orientation: EC50 means the concentration giving half of the maximal effect. As a reminder, the Cmax is the peak of the concentration-time curve.
